Results taken from patent US10307413B2, “Tetrahydro- and dihydro-isoquinoline PRMT5 inhibitors and uses thereof” (Epizyme, Inc., priority 2013, dated 2019).
Where two headings read alike, the source gives them in different places.

Columns and labels:
[1] = target: PRMT5/MEP50 (Homo sapiens (Human), UniProt O14744); assay: PRMT5 Biochemical Assay (PRMT5/MEP50 enzyme assay on peptide substrate, 3H-SAM Flashplate)
Text: S-adenosylmethionine (SAM), S-adenosylhomocysteine (SAH), bicine, KCl, Tween20, dimethylsulfoxide (DMSO), bovine skin gelatin (BSG), and Tris(2-carboxyethyl)phosphine hydrochloride solution (TCEP) were purchased from Sigma-Aldrich at the highest level of purity possible. ^3H-SAM was purchase from American Radiolabeled Chemicals with a specific activity of 80 Ci/mmol. 384-well streptavidin Flashplates were purchased from PerkinElmer.
Peptide representative of human histone H4 residues 1-15 was synthesized with a C-terminal linker-affinity tag motif and a C-terminal amide cap by 21st Century Biochemicals.
The amplified genes were sublconed into pENTR/D/TEV (Life Technologies) and subsequently transferred by Gateway™ attL×attR recombination to pDEST8 baculovirus expression vector (Life Technologies).
Protein over-expression was accomplished by infecting exponentially growing Spodoptera frugiperda (SF9) cell culture at 1.2×10^6 cell/ml with a 5000 fold dilution of BIIC stock. Infections were carried out at 27° C. for 72 hours, harvested by centrifugation, and stored at −80° C. for purification.
Flag-PRMT5/6His-MeP50 was eluted with 300 mM Imidazole in the same buffer.
General Procedure for PRMT5/MEP50 Enzyme Assays on Peptide Substrates.
The assays were all performed in a buffer consisting of 20 mM Bicine (pH=7.6), 1 mM TCEP, 0.005% BSG, and 0.002% Tween20, prepared on the day of use. […] DMSO (1 ul) was added to Columns 11, 12, 23, 24, rows A-H for the maximum signal control and 1 ul of SAH, a known product and inhibitor of PRMT5/MEP50, was added to columns 11, 12, 23, 24, rows I-P for the minimum signal control. A cocktail (40 ul) containing the PRMT5/MEP50 enzyme and the peptide was added by Multidrop Combi (Thermo-Fisher). The compounds were allowed to incubate with PRMT5/MEP50 for 30 min at 25 degrees Celsius, then a cocktail (10 ul) containing ^3H-SAM was added to initiate the reaction (final volume=51 ul). […] The assays were stopped by the addition of non-radioactive SAM (10 ul) to a final concentration of 600 uM, which dilutes the ^3H-SAM to a level where its incorporation into the peptide substrate is no longer detectable. 50 ul of the reaction in the 384-well polypropylene plate was then transferred to a 384-well Flashplate and the biotinylated peptides were allowed to bind to the streptavidin surface for at least 1 hour before being washed three times with 0.1% Tween20 in a Biotek ELx405 plate washer. The plates were then read in a PerkinElmer TopCount plate reader to measure the quantity of ^3H-labeled peptide bound to the Flashplate surface, measured as disintegrations per minute (dpm) or alternatively, referred to as counts per minute (cpm).
[formula] [formula] Where dpm=disintegrations per minute, cmpd=signal in assay well, and min and max are the respective minimum and maximum signal controls.
[formula] [formula] Where top and bottom are the normally allowed to float, but may be fixed at 100 or 0 respectively in a 3-parameter fit. The Hill Coefficient normally allowed to float but may also be fixed at 1 in a 3-parameter fit. Y is the % inhibition and X is the compound concentration.

[2] = tested on: symmetric di-methyl arginine in Z-138 cells; assay: Z-138 Methylation Assay (In Cell Western for symmetric di-methyl arginine and DNA content); type: cell-based; conditions: Homo sapiens, read-out: ICW EC50
In short: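 In-cell western: symmetric di-methyl arginine signal ratioed to DRAQ5 DNA content after 96 h compound exposure of Z-138 cells seeded at 50,000 cells/mL.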

[3] = tested on: Z-138 cell line; assay: Z-138 Proliferation Assay (Cell Titer Glo, 5 days); type: cell-based; conditions: Homo sapiens, read-out: Proliferation EC50
In short: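 Viability via CellTiter-Glo luminescence (ATP) after 5-day incubation at 37 °C, 5% CO2. Compounds tested in triplicate, nine 3-fold steps, highest final concentration 20 μM in 0.2% DMSO; 50% inhibitory concentration by 4-parameter fit of normalized curves.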

[4] = 120 h, Z-138 cells, 5 days, Cell Titer Glo

PRMT5/MEP50, sequence (O14744 other isoform, or with tags, fused parts or gaps): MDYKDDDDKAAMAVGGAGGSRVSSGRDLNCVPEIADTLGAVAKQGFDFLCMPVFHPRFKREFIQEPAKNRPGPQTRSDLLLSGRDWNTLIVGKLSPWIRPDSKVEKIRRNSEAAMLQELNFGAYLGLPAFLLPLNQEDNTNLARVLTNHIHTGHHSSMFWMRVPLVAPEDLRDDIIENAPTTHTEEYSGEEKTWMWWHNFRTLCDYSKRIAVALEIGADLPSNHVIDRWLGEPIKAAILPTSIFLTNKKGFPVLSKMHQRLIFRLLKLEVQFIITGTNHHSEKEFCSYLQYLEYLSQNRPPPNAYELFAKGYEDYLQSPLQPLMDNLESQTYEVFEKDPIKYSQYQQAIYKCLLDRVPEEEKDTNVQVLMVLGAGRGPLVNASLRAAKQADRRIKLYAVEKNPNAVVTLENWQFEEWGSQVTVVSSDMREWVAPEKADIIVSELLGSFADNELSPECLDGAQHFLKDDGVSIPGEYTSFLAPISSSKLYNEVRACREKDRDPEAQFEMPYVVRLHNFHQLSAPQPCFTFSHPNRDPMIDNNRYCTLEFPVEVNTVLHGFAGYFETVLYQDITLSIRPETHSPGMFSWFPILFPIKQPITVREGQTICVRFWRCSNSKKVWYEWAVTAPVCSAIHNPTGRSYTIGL
PRMT5/MEP50, sequence (Q9BQA1 other isoform, or with tags, fused parts or gaps partner): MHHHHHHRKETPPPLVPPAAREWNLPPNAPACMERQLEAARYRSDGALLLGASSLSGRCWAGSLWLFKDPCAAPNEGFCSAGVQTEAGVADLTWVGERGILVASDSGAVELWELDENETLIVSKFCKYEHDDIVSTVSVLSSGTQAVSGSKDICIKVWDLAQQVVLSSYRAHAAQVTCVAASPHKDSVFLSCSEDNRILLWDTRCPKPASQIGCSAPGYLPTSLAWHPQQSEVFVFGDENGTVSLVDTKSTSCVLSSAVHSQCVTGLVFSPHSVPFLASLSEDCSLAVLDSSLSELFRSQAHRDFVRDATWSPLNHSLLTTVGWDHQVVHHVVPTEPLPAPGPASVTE

SMILES | IC50 ([1]; PRMT5 biochemical assay) | EC50 ([2]; In Cell Western methylation) | EC50 [3, 4] | IC50 [1] | EC50 [2] | EC50 ([3]; 120 h, Z-138 cells, 5 days) | EC50 ([3]; Z-138, 120 h)
CN(C)C(=O)[C@H]1C[C@H](Nc2cc(C(=O)NC[C@H](O)CN3CCc4ccccc4C3)ncn2)C1 [Compound 507] | < 100 nM | < 100 nM | 101 to 1000 nM | – | – | – | –
CN(C)CCCOc1ccc(C(=O)NC[C@H](O)CN2CCc3ccccc3C2)cc1 [Compound 345] | – | – | – | < 100 nM | < 100 nM | 101 to 1000 nM | –
O=C(NC[C@H](O)CN1CCc2ccccc2C1)c1cc(NC2CCN(C(=O)C3CCC3)CC2)ncn1 [Compound 419] | < 100 nM | < 100 nM | < 100 nM | – | – | – | –
O=C(NCC(O)CN1CCc2ccccc2C1)c1ccccn1 (centres unmarked) [Compound 17, N-(3-(3,4-dihydroisoquinolin-2(1H)-yl)-2-hydroxypropyl)picolinamide] | – | – | – | 101 to 1000 nM | 101 to 1000 nM | > 20000 nM | –
CN1CCC(Nc2cc(C(=O)NC[C@H](O)CN3CCc4ccccc4C3)cnn2)C1 (some centres unmarked) [Compound 689] | < 100 nM | 101 to 1000 nM | > 5000 nM | – | – | – | –
CCS(=O)(=O)CCN1CCC(Nc2cc(C(=O)NC[C@H](O)CN3CCc4ccccc4C3)ncn2)CC1 [Compound 640] | < 100 nM | < 100 nM | – | – | – | – | 101 to 1000 nM
O=C(NC[C@H](O)CN1CCc2ccccc2C1)c1cncc(OC2CCN(CC(F)(F)F)CC2)c1 [Compound 289] | – | – | – | < 100 nM | < 100 nM | 101 to 1000 nM | –
CCC(=O)N1CC(Nc2cc(C(=O)NC[C@H](O)CN3CCc4ccccc4C3)ncn2)C1 [Compound 574] | < 100 nM | < 100 nM | < 100 nM | – | – | – | –
CNC(=O)[C@H]1C[C@H](Nc2cc(C(=O)NC[C@H](O)CN3CCc4ccccc4C3)ncn2)C1 [Compound 506] | < 100 nM | < 100 nM | 101 to 1000 nM | – | – | – | –
O=C(NC[C@H](O)CN1CCc2ccccc2C1)c1ccc(OC2CCCNC2)cc1 (some centres unmarked) [Compound 347] | – | – | – | < 100 nM | < 100 nM | 101 to 1000 nM | –
CC(C)C(=O)N1CCN(c2nc(NC3COC3)cc(C(=O)NC[C@H](O)CN3CCc4ccccc4C3)n2)CC1 [Compound 463] | < 100 nM | < 100 nM | < 100 nM | – | – | – | –
CC(NC(=O)c1cc(NC2COC2)ncn1)[C@@H](O)CN1CCc2ccccc2C1 (some centres unmarked) [Compound 492] | < 100 nM | < 100 nM | 1000 to 10000 nM | – | – | – | –
CCSCCN1CC(Nc2cc(C(=O)NC[C@H](O)CN3CCc4ccccc4C3)ncn2)C1 [Compound 581] | < 100 nM | 101 to 1000 nM | – | – | – | – | > 5000 nM
CNCCOc1cccc(C(=O)NCC(O)CN2CCc3ccccc3C2)c1 (centres unmarked) [Compound 39] | – | – | – | 101 to 1000 nM | 1000 to 10000 nM | > 20000 nM | –
C[C@H](N1CC(Nc2cc(C(=O)NC[C@H](O)CN3CCc4ccccc4C3)ncn2)C1)C(F)(F)F [Compound 445] | < 100 nM | < 100 nM | 1000 to 10000 nM | – | – | – | –
CC(=O)N1CC(Nc2cncc(C(=O)NC[C@H](O)CN3CCc4ccccc4C3)c2)C1 [Compound 444] | < 100 nM | < 100 nM | 101 to 1000 nM | – | – | – | –
CN(CCO)c1nc(NC2COC2)cc(C(=O)NC[C@H](O)CN2CCc3ccccc3C2)n1 [Compound 495] | < 100 nM | < 100 nM | 101 to 1000 nM | – | – | – | –

SMILES | IC50 ([1]; PRMT5 biochemical assay) | EC50 ([2]; In Cell Western methylation) | EC50 [3, 4] | IC50 [1] | EC50 [2] | EC50 ([3]; 120 h, Z-138 cells, 5 days) | EC50 ([3]; Z-138, 120 h)
CC(=O)N1CC(Oc2cc(C(=O)NC[C@H](O)CN3CCc4ccccc4C3)ncn2)C1 [Compound 475] | < 100 nM | < 100 nM | 101 to 1000 nM | – | – | – | –
O=C(NC[C@H](O)CN1CCc2ccccc2C1)c1cccc(NC2COC2)n1 [Compound 436] | < 100 nM | < 100 nM | 1000 to 10000 nM | – | – | – | –
O=C(NC[C@H](O)CN1CCc2ccccc2C1)c1cc(NC2CNC2)ccn1 [Compound 565] | < 100 nM | < 100 nM | 101 to 1000 nM | – | – | – | –
CC(=O)N1CCC(Nc2cc(C(=O)NC(C)C(O)CN3CCc4ccccc4C3)ncn2)CC1 (centres unmarked) [Compound 536] | < 100 nM | < 100 nM | 101 to 1000 nM | – | – | – | –
CN(C)C(=O)[C@H]1CC[C@H](Nc2cc(C(=O)NC[C@H](O)CN3CCc4ccccc4C3)ncn2)CC1 [Compound 587] | < 100 nM | < 100 nM | < 100 nM | – | – | – | –
Cc1nc(NC2COC2)cc(C(=O)NC[C@H](O)CN2CCc3ccccc3C2)n1 [Compound 399] | < 100 nM | < 100 nM | 1000 to 10000 nM | – | – | – | –
O=C(NC[C@H](O)CN1CCc2ccccc2C1)c1cc(NC2COC2)ccn1 [Compound 435] | < 100 nM | < 100 nM | 101 to 1000 nM | – | – | – | –
CO[C@H]1C[C@@H](Nc2cc(C(=O)NC[C@H](O)CN3CCc4ccccc4C3)ncn2)C1 [Compound 563] | < 100 nM | < 100 nM | 101 to 1000 nM | – | – | – | –
CNC(=O)CN1CCC(Nc2cc(C(=O)NC[C@H](O)CN3CCc4ccccc4C3)ncn2)CC1 [Compound 533] | < 100 nM | < 100 nM | < 100 nM | – | – | – | –
CC(C)C(=O)N1CC(Nc2cc(C(=O)NC[C@H](O)CN3CCc4ccccc4C3)ncn2)C1 [Compound 416] | < 100 nM | < 100 nM | < 100 nM | – | – | – | –
CC(=O)N1CC(Nc2cc(C(=O)NCCCN3CCc4ccccc4C3)ncn2)C1 [Compound 652] | < 100 nM | 101 to 1000 nM | > 5000 nM | – | – | – | –
O=C(NC[C@H](O)CN1CCc2ccccc2C1)c1cnnc(OC2CCNCC2)c1 [Compound 619] | < 100 nM | 101 to 1000 nM | 10000 to 50000 nM | – | – | – | –
CC(O)(CNC(=O)c1cc(NC2CCNCC2)ncn1)CN1CCc2ccccc2C1 (centres unmarked) [Compound 647] | 1000 to 10000 nM | > 1000 nM | > 5000 nM | – | – | – | –
O=C(NC[C@H](O)CN1CCc2ccccc2C1)c1cc(NC2CN(C(=O)C3CC3)C2)ccn1 [Compound 636] | < 100 nM | < 100 nM | < 100 nM | – | – | – | –
CC(C)Cc1nc(NC2COC2)cc(C(=O)NC[C@H](O)CN2CCc3ccccc3C2)n1 [Compound 464] | < 100 nM | < 100 nM | < 100 nM | – | – | – | –
CCC(=O)N1CCC(Nc2cc(C(=O)NC[C@H](O)CN3CCc4ccccc4C3)ccn2)CC1 [Compound 454] | < 100 nM | – | < 100 nM | – | – | – | –
